Among the data in patent US20080207705A1, “Heteroaryl-Imidazole Derivatives as Cannabinoid CB1 Receptor Antagonists” (Green Cross Corporation, priority 2007, published 2008) are IC50 values, retold here.

Each structure is given as a SMILES string.

For one assay, the target named is T1, rat CB-1 receptor (Rattus norvegicus, UniProt P20272).
T1 construct: The tissue obtained from the brain of SD rats was homogenized; from tissue; host or cells: brain of SD rats (membrane pellet of homogenate)
T1 sequence (P20272 whole entry): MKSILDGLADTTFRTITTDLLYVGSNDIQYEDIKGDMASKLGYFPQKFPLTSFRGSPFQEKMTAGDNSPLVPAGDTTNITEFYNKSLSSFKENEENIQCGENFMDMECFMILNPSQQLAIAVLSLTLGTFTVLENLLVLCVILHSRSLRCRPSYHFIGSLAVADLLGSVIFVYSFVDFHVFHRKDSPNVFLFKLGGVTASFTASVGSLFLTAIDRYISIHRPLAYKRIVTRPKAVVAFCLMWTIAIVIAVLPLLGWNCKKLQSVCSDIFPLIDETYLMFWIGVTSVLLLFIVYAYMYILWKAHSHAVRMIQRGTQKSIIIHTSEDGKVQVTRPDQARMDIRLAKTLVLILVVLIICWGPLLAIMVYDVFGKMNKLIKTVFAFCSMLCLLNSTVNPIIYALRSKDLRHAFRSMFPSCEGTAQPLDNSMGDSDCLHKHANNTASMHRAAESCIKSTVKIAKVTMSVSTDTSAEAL
Kind of assay: rat CB-1 receptor binding protocol with [3H]CP-55940.
Conditions: not given
Usually IC50 stands for the concentration that gives 50% inhibition. Take `CCc1c(-c2nnc(C(C)(C)C)o2)nc(-c2ccc(Cl)cc2Cl)n1-c1ccc(Cl)cc1` [Example 15, 2-tert-butyl-5-(1-(4-chlorophenyl)-2-(2,4-dichlorophenyl)-5-ethyl-1H-imidazol-4-yl)-1,3,4-oxadiazole]: the half-inhibitory concentration (IC50) is 18.1 nM.

Turning to `CC(C)(C)c1nnc(-c2nc(-c3ccccc3Cl)n(-c3ccc(Br)cc3)c2Cn2cncn2)s1` [Example 168, 2-(5-((1H-1,2,4-Triazol-1-yl)methyl)-1-(4-bromophenyl)-2-(2-chlorophenyl)-1H-imidazol-4-yl)-5-tert-butyl-1,3,4-thiadiazole], the IC50 worked out at 4.01 nM.

Consider `CC(C)c1c(-c2nnc(C(C)(C)C)o2)nc(-c2ccc(Cl)cc2Cl)n1-c1ccc(Br)cc1` [Example 25, 2-(1-(4-Bromophenyl)-2-(2,4-dichlorophenyl)-5-isopropyl-1H-imidazol-4-yl)-5-tert-butyl-1,3,4-oxadiazole], for which the IC50 was found to be 21.2 nM.

`CCc1c(-c2nnc(C3(C(F)(F)F)CCC3)o2)nc(-c2ccc(Cl)cc2Cl)n1-c1ccc(Br)cc1` [Example 50, 2-(1-(4-Bromophenyl)-2-(2,4-dichlorophenyl)-5-ethyl-1H-imidazol-4-yl)-5-(1-(trifluoromethyl)cyclobutyl)-1,3,4-oxadiazole] displayed an IC50 of 9.56 nM.

The assay is the same for the next values; noted with them: [3H]CP-55940, brain tissue of SD rats, 30 °C for 60 min; read-out: IC50.
As for `CCc1c(-c2nnc(C3(C(F)(F)F)CC3)o2)nc(-c2ccccc2Cl)n1-c1ccc(Br)cc1` [Example 56, 2-(1-(4-Bromophenyl)-2-(2-chlorophenyl)-5-ethyl-1H-imidazol-4-yl)-5-(1-(trifluoromethyl)cyclopropyl)-1,3,4-oxadiazole], the IC50 worked out at 20.1 nM.

On to `FC(F)(F)C1(c2nnc(-c3nc(-c4ccc(Cl)cc4Cl)n(-c4ccc(Br)cc4)c3Cn3cncn3)s2)CCC1` [Example 166, 2-(5-((1H-1,2,4-Triazol-1-yl)methyl)-1-(4-bromophenyl)-2-(2,4-dichlorophenyl)-1H-imidazol-4-yl)-5-(1-(trifluoromethyl)cyclobutyl)-1,3,4-thiadiazole], for which the IC50 amounted to 1.7 nM.

For `Cc1c(-c2nnc(C3(C(F)(F)F)CCC3)s2)nc(-c2ccc(Cl)cc2Cl)n1-c1ccc(Br)cc1` [Example 137, 2-(1-(4-Bromophenyl)-2-(2,4-dichlorophenyl)-5-methyl-1H-imidazol-4-yl)-5-(1-(trifluoromethyl)cyclobutyl)-1,3,4-thiadiazole], the IC50 turned out to be 8.52 nM.

In the case of `CC(C)c1c(-c2nnc(C3(c4ccccc4)CC3)s2)nc(-c2ccc(Cl)cc2Cl)n1-c1ccc(Cl)cc1` [Example 118, 2-(1-(4-Chlorophenyl)-2-(2,4-dichlorophenyl)-5-isopropyl-1H-imidazol-4-yl)-5-(1-phenylcyclopropyl)-1,3,4-thiadiazole], the IC50 is 7.54 nM.

On to `Cc1c(-c2ncc(CC(C)C)s2)nc(-c2ccc(Cl)cc2Cl)n1-c1ccc(Cl)cc1` [Example 197, 2-(1-(4-Chlorophenyl)-2-(2,4-dichlorophenyl)-5-methyl-1H-imidazol-4-yl)-5-isobutylthiazole], for which the IC50 amounted to 46.4 nM.

As for `Cc1c(-c2nnc(C3(c4ccc(Cl)cc4)CC3)o2)nc(-c2ccc(Cl)cc2Cl)n1-c1ccc(Br)cc1` [Example 48, 2-(1-(4-Bromophenyl)-2-(2,4-dichlorophenyl)-5-methyl-1H-imidazol-4-yl)-5-(1-(4-chlorophenyl)cyclopropyl)-1,3,4-oxadiazole], the half-maximal inhibitory concentration (IC50) worked out at 18.7 nM.

As for `CCCc1c(-c2nnc(C3CCC3)s2)nc(-c2ccc(Cl)cc2Cl)n1-c1ccc(Br)cc1` [Example 122, 2-(1-(4-Bromophenyl)-2-(2,4-dichlorophenyl)-5-propyl-1H-imidazol-4-yl)-5-cyclobutyl-1,3,4-thiadiazole], the IC50 amounted to 37.4 nM.

In the case of `CCCc1c(-c2nnc(C3(c4ccc(Cl)cc4)CCC3)o2)nc(-c2ccc(Cl)cc2Cl)n1-c1ccc(Cl)cc1` [Example 38, 2-(1-(4-Chlorophenyl)-2-(2,4-dichlorophenyl)-5-propyl-1H-imidazol-4-yl)-5-(1-(4-chlorophenyl)cyclobutyl)-1,3,4-oxadiazole], the IC50 stood at 11.7 nM.

Turning to `CC(C)(C)c1nnc(-c2nc(-c3ccc(Cl)cc3Cl)n(-c3ccc(Cl)cc3)c2Cn2cncn2)o1` [Example 87, 2-(5-((1H-1,2,4-Triazol-1-yl)methyl)-1-(4-chlorophenyl)-2-(2,4-dichlorophenyl)-1H-imidazol-4-yl)-5-tert-butyl-1,3,4-oxadiazole], the concentration for half-maximal inhibition (IC50) is 12 nM.

Consider `Cc1c(-c2nnc(C3CCCCC3)s2)nc(-c2ccc(Cl)cc2Cl)n1-c1ccc(Br)cc1` [Example 108, 2-(1-(4-Bromophenyl)-2-(2,4-dichlorophenyl)-5-methyl-1H-imidazol-4-yl)-5-cyclohexyl-1,3,4-thiadiazole], for which the 50% inhibitory concentration (IC50) came out at 56.6 nM.

As for `CCCc1c(-c2nnc(C(C)(C)C)s2)nc(-c2ccc(Cl)cc2Cl)n1-c1ccc(Cl)cc1` [Example 125, 2-tert-Butyl-5-(1-(4-chlorophenyl)-2-(2,4-dichlorophenyl)-5-propyl-1H-imidazol-4-yl)-1,3,4-thiadiazole], the IC50 was 7.94 nM.

With `CCCc1c(-c2nnc(C3(c4ccccc4)CC3)o2)nc(-c2ccc(Cl)cc2Cl)n1-c1ccc(Br)cc1` [Example 31, 2-(1-(4-Bromophenyl)-2-(2,4-dichlorophenyl)-5-propyl-1H-imidazol-4-yl)-5-(1-phenylcyclopropyl)-1,3,4-oxadiazole], the IC50 is 46.1 nM.

In the case of `CCc1c(-c2nnc(C3(c4ccc(Cl)cc4)CC3)s2)nc(-c2ccc(Cl)cc2Cl)n1-c1ccc(Br)cc1` [Example 130, 2-(1-(4-Bromophenyl)-2-(2,4-dichlorophenyl)-5-ethyl-1H-imidazol-4-yl)-5-(1-(4-chlorophenyl)cyclopropyl)-1,3,4-thiadiazole], the half-inhibitory concentration (IC50) was 4.53 nM.

Regarding `Clc1ccc(-n2c(-c3ccc(Cl)cc3Cl)nc(-c3nnc(C4(c5ccc(Cl)cc5)CC4)o3)c2Cn2cncn2)cc1` [Example 88, 2-(5-((1H-1,2,4-Triazol-1-yl)methyl)-1-(4-chlorophenyl)-2-(2,4-dichlorophenyl)-1H-imidazol-4-yl)-5-(1-(4-chlorophenyl)cyclopropyl)-1,3,4-oxadiazole], the half-inhibitory concentration (IC50) was determined as 1.53 nM.

With `Cc1c(-c2nnc(C(C)(C)C)o2)nc(-c2ccc(Cl)cc2Cl)n1-c1ccc(Br)cc1` [Example 20, 2-(1-(4-Bromophenyl)-2-(2,4-dichlorophenyl)-5-methyl-1H-imidazol-4-yl)-5-tert-butyl-1,3,4-oxadiazole], the IC50 came out at 5.81 nM.

With `CCc1c(-c2nnc(C3(c4ccccc4)CC3)s2)nc(-c2ccc(Cl)cc2Cl)n1-c1ccc(Br)cc1` [Example 117, 2-(1-(4-Bromophenyl)-2-(2,4-dichlorophenyl)-5-ethyl-1H-imidazol-4-yl)-5-(1-phenylcyclopropyl)-1,3,4-thiadiazole], the concentration for half-maximal inhibition (IC50) is 8.29 nM.

Regarding `Cc1c(-c2ncc(C(C)C)s2)nc(-c2ccc(Cl)cc2Cl)n1-c1ccc(Cl)cc1` [Example 196, 2-(1-(4-Chlorophenyl)-2-(2,4-dichlorophenyl)-5-methyl-1H-imidazol-4-yl)-5-isopropylthiazole], the half-maximal inhibitory concentration (IC50) was 16 nM.

For the compound `CCc1c(-c2nnc(C3CCC3)s2)nc(-c2ccc(Cl)cc2Cl)n1-c1ccc(Cl)cc1` [Example 103, 2-(1-(4-Chlorophenyl)-2-(2,4-dichlorophenyl)-5-ethyl-1H-imidazol-4-yl)-5-cyclobutyl-1,3,4-thiadiazole], the IC50 was determined as 16.1 nM.
